The compounds below were run against T1, human PAH with the R408W mutation (A375 R408W cells) (Homo sapiens, UniProt P00439, R408W) (assay: Cell Based Phenylalanine Flux Assay). Conditions: A375 R408W cells; 24 hrs with compound, then 20 μM sepiapterin and 800 μM 13C9,15N-Phenylalanine for 4 hours; 13C-Tyrosine by LC-MS; average where tested multiple times.
T1 construct: expressed in transfected cells
T1 sequence (P00439 1-452 R408W): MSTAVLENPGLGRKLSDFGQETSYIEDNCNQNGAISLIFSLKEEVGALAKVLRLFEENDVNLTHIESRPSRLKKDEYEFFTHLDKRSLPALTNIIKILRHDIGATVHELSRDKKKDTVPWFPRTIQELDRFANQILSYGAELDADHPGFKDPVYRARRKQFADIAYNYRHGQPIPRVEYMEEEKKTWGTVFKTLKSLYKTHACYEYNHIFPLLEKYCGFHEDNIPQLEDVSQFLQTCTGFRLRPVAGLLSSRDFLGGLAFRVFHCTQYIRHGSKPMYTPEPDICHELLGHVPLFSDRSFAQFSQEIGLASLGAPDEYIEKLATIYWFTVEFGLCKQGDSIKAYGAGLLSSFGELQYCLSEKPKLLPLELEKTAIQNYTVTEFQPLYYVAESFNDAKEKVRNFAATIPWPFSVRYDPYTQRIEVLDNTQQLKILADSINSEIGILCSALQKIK
Method in brief: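 AC50 is derived from LC-MS of 13C-tyrosine in the media after a 4 h pulse of 800 μM 13C9,15N-phenylalanine plus 20 μM sepiapterin. The A375 R408W PAH cells had received duplicate 10-point, 2-fold compound dilutions (0.5% DMSO) for 24 h beforehand.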
O=C(c1oc(C2(O)CCC2)nc1C(F)(F)F)N1CCc2[nH]cnc2[C@H]1c1nc2cc(F)ccc2o1 [Example 585, (S)-(4-(5-fluorobenzo[d]oxazol-2-yl)-6,7-dihydro-1H-imidazo[4,5-c]pyridin-5(4H)-yl)(2-(1-hydroxycyclobutyl)-4-(trifluoromethyl)oxazol-5-yl)methanone] gave an AC50 of no more than 500 nM. Compound COc1ccc(-c2nnc(C(=O)N3CCc4[nH]cnc4[C@@H]3c3nc4cc(F)ccc4o3)o2)nc1 [Example 441, (R)-(4-(5-fluorobenzo[d]oxazol-2-yl)-6,7-dihydro-1H-imidazo[4,5-c]pyridin-5(4H)-yl)(5-(5-methoxypyridin-2-yl)-1,3,4-oxadiazol-2-yl)methanone] has an AC50 of 1000 to 5000 nM. Cn1nccc1C(=O)N1CCc2[nH]cnc2[C@H]1c1nc2ccccc2o1 [Example 711, (S)-(4-(benzo[d]oxazol-2-yl)-6,7-dihydro-1H-imidazo[4,5-c]pyridin-5(4H)-yl)(1-methyl-1H-pyrazol-5-yl)methanone] was tested, and the AC50 was 1000 to 5000 nM. CC(F)(F)c1ncoc1C(=O)N1CCc2[nH]cnc2[C@H]1c1nc2cc(F)ccc2o1 [Example 153, (S)-(4-(1,1-difluoroethyl)oxazol-5-yl)(4-(5-fluorobenzo[d]oxazol-2-yl)-6,7-dihydro-1H-imidazo[4,5-c]pyridin-5(4H)-yl)methanone] showed an AC50 of 500 to 1000 nM. With O=C(c1ccnn1C(F)F)N1CCc2[nH]cnc2[C@H]1c1nc2ccc(F)c(F)c2o1 [Example 513, (S)-(4-(6,7-difluorobenzo[d]oxazol-2-yl)-6,7-dihydro-1H-imidazo[4,5-c]pyridin-5(4H)-yl)(1-(difluoromethyl)-1H-pyrazol-5-yl)methanone] the AC50 was 500 to 1000 nM. O=C(c1nnc(-c2ccccn2)o1)N1CCc2[nH]cnc2[C@H]1c1nc2ccc(F)c(F)c2o1 [Example 546, (S)-(4-(6,7-difluorobenzo[d]oxazol-2-yl)-6,7-dihydro-1H-imidazo[4,5-c]pyridin-5(4H)-yl)(5-(pyridin-2-yl)-1,3,4-oxadiazol-2-yl)methanone] gave an AC50 of 500 to 1000 nM. In the case of Cc1ccc2oc([C@H]3c4nc[nH]c4CCN3C(=O)c3nnc(-c4ccccn4)o3)nc2c1 [Example 98, (R)-(4-(5-methylbenzo[d]oxazol-2-yl)-6,7-dihydro-1H-imidazo[4,5-c]pyridin-5(4H)-yl)(5-(pyridin-2-yl)-1,3,4-oxadiazol-2-yl)methanone], the AC50 is reported as 1000 to 5000 nM. Cc1ccc2oc([C@H]3c4nc[nH]c4CCN3C(=O)c3nnc(-c4ccn(C(F)F)n4)o3)nc2c1 [Example 696, (R)-(5-(1-(difluoromethyl)-1H-pyrazol-3-yl)-1,3,4-oxadiazol-2-yl)(4-(5-methylbenzo[d]oxazol-2-yl)-6,7-dihydro-1H-imidazo[4,5-c]pyridin-5(4H)-yl)methanone] was tested, and the AC50 was 1000 to 5000 nM. Cn1cc(-c2nnc(C(=O)N3CCc4[nH]cnc4[C@@H]3c3nc4c(F)c(F)ccc4o3)o2)cn1 [Example 646, (R)-(4-(4,5-difluorobenzo[d]oxazol-2-yl)-6,7-dihydro-1H-imidazo[4,5-c]pyridin-5(4H)-yl)(5-(1-methyl-1H-pyrazol-4-yl)-1,3,4-oxadiazol-2-yl)methanone] was tested, and the AC50 was 1000 to 5000 nM. O=C(c1ccnn1CC(F)F)N1CCc2[nH]cnc2[C@@H]1c1nc2cccc(F)c2o1 [Example 848, (R)-(1-(2,2-difluoroethyl)-1H-pyrazol-5-yl)(4-(7-fluorobenzo[d]oxazol-2-yl)-6,7-dihydro-1H-imidazo[4,5-c]pyridin-5(4H)-yl)methanone] was tested, and the AC50 was 500 to 1000 nM.

Same assay, conditions: A375 cells expressing R408W PAH; 24 hrs with compound, then 20 μM sepiapterin and 800 μM 13C9,15N-Phenylalanine for 4 hours; 13C-Tyrosine by LC-MS; average where tested multiple times
Cn1cnnc1C(=O)N1CCc2[nH]cnc2C1c1nc2ccc(F)cc2o1 (centres unmarked) gave an AC50 of 1000 to 5000 nM. Compound O=C(CCc1nccs1)N1CCc2[nH]cnc2C1c1nc2ccc(Br)cc2o1 (centres unmarked) has an AC50 of 1000 to 5000 nM. For O=C(c1nnc(-c2ccccn2)o1)N1CCc2[nH]cnc2C1c1nc2cc(C(F)(F)F)ccc2o1 (centres unmarked), the AC50 was 1000 to 5000 nM. In the case of O=C(c1nncn1C1CC1)N1CCc2[nH]cnc2C1c1nc2cc(F)ccc2o1 (centres unmarked), the AC50 is reported as 1000 to 5000 nM. For CN1CCN(c2nnc(C(=O)N3CCc4[nH]cnc4C3c3nc4cc(F)ccc4o3)o2)CC1 (centres unmarked), the AC50 was 1000 to 5000 nM. O=C(c1cnco1)N1CCc2[nH]cnc2C1c1nc2ccc(F)cc2o1 (centres unmarked) was tested, and the AC50 was 1000 to 5000 nM. Compound O=C(CCc1cnco1)N1CCc2[nH]cnc2C1c1nc2cccc(F)c2o1 (centres unmarked) has an AC50 of 1000 to 5000 nM.
